The values that follow are results of earlier work, collected in PMC8277557 (Bioorganic & Medicinal Chemistry Letters, 2021).

In general, IC50 refers to the midpoint of a concentration-inhibition curve. Broadly, the Ki is a dissociation constant, usually derived from enzyme kinetics or from competition with a known ligand.

Read-outs that look alike come from different tables or passages of the source.

One data set relates to CoV-2 3CLpro. The settings on record: for IC50: read-out: Literature IC50, CoV-2 3CLpro.
The conditions of data set [1]: in vivo.

As to `CCCC[C@@H](C=O)NC(=O)[C@H](CC(C)C)NC(=O)OCc1ccccc1` [Calpeptin], the IC50 is 10.7 ± 0.28 µM with CoV-2 3CLpro (ref [16]) and 4.81 ± 0.18 µM in the data set with CoV-2 3CLpro (ref [31]). Take `CCOC(=O)/C=C/[C@H](C[C@@H]1CCNC1=O)NC(=O)[C@H](CC(C)C)NC(=O)[C@@H](NC(=O)OCc1ccccc1)C(C)C` [Compound 3]: the Ki at CoV-1 3CLpro (read-out: Literature Ki, CoV-1 3CLpro, ref [19]) is 0.66 µM. As for `O=C[C@H](C[C@@H]1CCNC1=O)NC(=O)[C@H](Cc1cccc(F)c1)NC(=O)c1cc2ccccc2[nH]1` [Compound 11b], the IC50 in the data set on CoV-2 3CLpro (ref [20]) was 0.04 ± 0.002 µM. Turning to `CC(C)C[C@H](NC(=O)OCc1ccccc1)C(=O)N[C@@H](C[C@@H]1CCNC1=O)C(=O)c1nc2ccccc2s1` [Compound 25c], in the data set with CoV-1 3CLpro (read-out: Literature IC50), the half-inhibitory concentration (IC50) was 21 µM. With `CCOC(=O)/C=C/[C@H](C[C@@H]1CCNC1=O)NC(=O)[C@@H](CC(=O)[C@@H](NC(=O)c1cc(C)on1)C(C)C)Cc1ccc(F)cc1` [Rupintrivir], the “activity against SARS-CoV-2 3CLpro” value in the data set on CoV-2 3CLpro (ref [16], [19]) is “inactive”. In the data set on CoV-1 3CLpro, the “activity against SARS-CoV-1 3CLpro” value was “inactive”. As for `C[C@@H](OC(C)(C)C)[C@H](NC(=O)OCc1ccccc1)C(=O)N[C@@H](CC1CCCCC1)C(=O)N[C@H](C=O)C[C@@H]1CCNC1=O` [TG-0205221], the “pharmacokinetic profile in rodents” value in data set [1] was “favourable pharmacokinetic profile”. For the compound Boceprevir, the IC50 in the data set with CoV-2 3CLpro (ref [16]) was 4.13 ± 0.61 µM; in the data set with CoV-2 3CLpro (ref [29]) it was 5.4 ± 1.53 µM.
